Assay results from paper PMC6804006, “Synthesis, Biological Activities and Docking Studies of Novel 4-(Arylaminomethyl)benzamide Derivatives as Potential Tyrosine Kinase Inhibitors” (Molecules, 2019).

Columns and labels:
[1] = test system: K-562 (chronic myelogenous leukemia); assay: MTT anti-proliferative assay, K-562; assay type: cell-based; conditions: Homo sapiens, K562, 48 h, 50% growth inhibition
Description: (§1) Each in vitro experiment was performed at least in triplicate, and the standard deviation of absorbance was less than 10% of the mean. For the in vitro assays, a stock solution (1% DMSO in the appropriate buffer with the tested compound diluted under sonication) was prepared from which several dilutions were made with the appropriate buffer.
(§2) Human cell lines were obtained from the Institute of Cytology, Russian Academy of Sciences. […] Cellular sensitivities to clofarabine and its lipid derivatives were measured with the MTT assay. Cells were plated in triplicate in 96-well plates (10^5 cells/well for suspended cell cultures and 5 × 10^3 cells/well for monolayer cultures); on the same day (suspended cell cultures) or on the following day (monolayer cultures), compounds were added at the appropriate dilutions. Plates were incubated under standard conditions for 48 h. Thereafter, 10 μL of MTT (Sigma) in phosphate-buffered saline (5 mg/mL) was added. The plates were incubated for an additional 4 h, and 150 μL of dimethyl sulfoxide (DMSO) was added to dissolve the formazan crystals. The optical density was read on a HALO MPR-95 Microplate Reader (Dynamica Scientific Ltd., Australia) at 570 nm. The antiproliferative effects were determined as degrees of inhibition of tumor cells (%).

[2] = test system: HL-60 (promyelocytic leukemia); assay: MTT anti-proliferative assay, HL-60; assay type: cell-based, human; conditions: Homo sapiens, HL-60, 48 h, 50% growth inhibition
Description: as §1, §2

[3] = test system: MCF-7 (breast adenocarcinoma); assay: MTT anti-proliferative assay, MCF-7; assay type: cell-based; conditions: Homo sapiens, MCF7, 48 h, 50% growth inhibition
Description: as §1, §2

HeLa (cervix carcinoma) = assay: MTT anti-proliferative assay, HeLa; assay type: cell-based; conditions: Homo sapiens, 48 h, 50% growth inhibition
Description: as §1, §2

A549 (lung carcinoma) = assay: MTT anti-proliferative assay, A-549; assay type: cell-based; conditions: Homo sapiens, 48 h, 50% growth inhibition
Description: as §1, §2

[4] = test system: OKP-GS (carcinoma of the kidney); assay: MTT anti-proliferative assay, OKP-GS; assay type: cell-based; conditions: Homo sapiens, 48 h, 50% growth inhibition
Description: as §1, §2

[5] = test system: RPMI 1788 (B lymphocyte, human normal cells); assay: MTT assay on normal cells RPMI 1788; assay type: cell-based; conditions: MTT 48 h
Description: as §1
Human cell lines were obtained from the Institute of Cytology, Russian Academy of Sciences. The cell lines studied were maintained in RPMI 1640 medium (AppliChem, Darmstadt, Germany) supplemented with 20% (HL-60, RPMI 1788) fetal calf serum (HyClone, Cramlington, UK), in DMEM (A 549) and Eagle’s MEM (AppliChem) (MCF7, HeLa) with 10% fetal calf serum (HyClone). Cells were cultivated at 37 °C in a humidified atmosphere of 5% CO2. Cellular sensitivities to clofarabine and its lipid derivatives were measured with the MTT assay. Cells were plated in triplicate in 96-well plates (10^5 cells/well for suspended cell cultures and 5 × 10^3 cells/well for monolayer cultures); on the same day (suspended cell cultures) or on the following day (monolayer cultures), compounds were added at the appropriate dilutions. Plates were incubated under standard conditions for 48 h. Thereafter, 10 μL of MTT (Sigma) in phosphate-buffered saline (5 mg/mL) was added. The plates were incubated for an additional 4 h, and 150 μL of dimethyl sulfoxide (DMSO) was added to dissolve the formazan crystals. The optical density was read on a HALO MPR-95 Microplate Reader (Dynamica Scientific Ltd., Australia) at 570 nm. The antiproliferative effects were determined as degrees of inhibition of tumor cells (%).

EGFR = target: T1, EGFR (Homo sapiens, UniProt P00533); assay: ADP-Glo kinase inhibitory assay, EGFR; assay type: biochemical; conditions: read-out: % Inhibition at 10 nM, EGFR
T1 construct: purchased Promega
T1 sequence (P00533 25-1210): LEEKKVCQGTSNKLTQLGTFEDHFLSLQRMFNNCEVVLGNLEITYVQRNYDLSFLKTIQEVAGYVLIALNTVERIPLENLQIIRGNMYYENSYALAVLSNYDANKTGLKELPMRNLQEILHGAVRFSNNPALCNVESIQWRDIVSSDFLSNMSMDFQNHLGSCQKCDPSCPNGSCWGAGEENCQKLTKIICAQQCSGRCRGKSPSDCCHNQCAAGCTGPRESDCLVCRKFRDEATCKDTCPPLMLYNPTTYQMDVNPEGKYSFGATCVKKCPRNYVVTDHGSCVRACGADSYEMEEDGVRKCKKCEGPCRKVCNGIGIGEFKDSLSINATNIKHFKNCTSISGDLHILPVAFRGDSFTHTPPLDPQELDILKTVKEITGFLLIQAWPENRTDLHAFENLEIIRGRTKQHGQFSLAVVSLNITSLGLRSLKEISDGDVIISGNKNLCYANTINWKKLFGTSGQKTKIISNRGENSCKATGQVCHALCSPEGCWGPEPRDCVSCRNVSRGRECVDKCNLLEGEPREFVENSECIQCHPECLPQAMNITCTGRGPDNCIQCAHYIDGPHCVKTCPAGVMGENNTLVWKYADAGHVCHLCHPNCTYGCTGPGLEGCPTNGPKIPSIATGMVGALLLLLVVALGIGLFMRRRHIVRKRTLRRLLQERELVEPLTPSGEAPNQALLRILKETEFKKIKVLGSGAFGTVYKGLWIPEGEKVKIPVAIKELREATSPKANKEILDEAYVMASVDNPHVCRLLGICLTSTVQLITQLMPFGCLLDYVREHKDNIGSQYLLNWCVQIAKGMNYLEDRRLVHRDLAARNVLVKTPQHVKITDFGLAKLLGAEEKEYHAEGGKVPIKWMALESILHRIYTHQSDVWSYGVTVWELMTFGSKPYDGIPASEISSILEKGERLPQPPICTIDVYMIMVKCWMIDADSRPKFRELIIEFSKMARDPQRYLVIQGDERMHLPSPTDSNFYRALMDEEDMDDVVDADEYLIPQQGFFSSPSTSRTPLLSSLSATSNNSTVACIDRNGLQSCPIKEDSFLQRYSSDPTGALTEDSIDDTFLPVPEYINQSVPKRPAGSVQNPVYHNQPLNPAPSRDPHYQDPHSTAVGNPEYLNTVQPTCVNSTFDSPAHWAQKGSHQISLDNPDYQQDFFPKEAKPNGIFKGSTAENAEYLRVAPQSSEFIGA
Description: (§3) We investigated the kinase selectivity of targeted compounds against eight receptor tyrosine kinases including EGFR (epidermal growth factor receptor), HER-2 and HER4 (human epidermal growth factor receptor), IGF1R (insulin like growth factor 1 receptor), InsR (gene insulin receptor), KDR (kinase insert domain receptor), and PDGFRa and PDGFRb (platelet-derived growth factor receptors). The assay was performed using the Kinase-Glo Plus luminescence kinase assay kit (TK-1+ADP-Glo™, Promega, San Diego, CA, USA). It measures kinase activity by quantitating the amount of ATP remaining in solution following a kinase reaction.
(§4) The assay was performed using a Kinase Selectivity Profiling System (TK-1+ADP-Glo™ Assay and TK-2+ADP-Glo™ Assay, Promega), where the kinase activity was measured by quantifying the amount of ADP produced during a kinase reaction. The assay is performed in two steps; firstly, after the kinase reaction, an equal volume of ADP-Glo™ Reagent is added to terminate the kinase reaction and deplete the remaining ATP. Secondly, the Kinase Detection Reagent is added to simultaneously convert ADP to ATP and allow the newly synthesized ATP to be measured using a luciferase/luciferin reaction. The luminescent signal generated is proportional to the ADP concentration produced and is correlated with kinase activity. Our compounds were diluted with kinase buffer (5% DMSO), and 1 μL of the dilution was added to a 5-μL reaction so that the final concentration of DMSO was 1% in all of reactions. All of the enzymatic reactions were conducted at 23 °C for 60 min. The 5-μL reaction mixture contained 1µL of the compound solution, 2µL of the enzyme solution, and 2 µL of kinase substrate. After the enzymatic reaction, 5 µL of ADP-Glo™ Reagent (Promega, USA) was added to each reaction, and the plate was incubated for 40 min at 23 °C. Then, 10 µL of Kinase Detection Reagent (Promega, USA) was added to each reaction, and the plate was incubated for 30 min at 23 °C. Luminescence signal was measured using an Infinite M 200 plate reader (Tecan, Switzerland).
(§5) Kinase activity assays were performed in duplicate at each concentration. The luminescence data were analyzed using the computer software, Magellan™. The difference between luminescence intensities in the absence of Kinase (Lut) and in the presence of Kinase (Luc) was defined as 100% activity (Lut − Luc).

HER-2 = target: T2, HER-2 (Homo sapiens, UniProt P04626); assay: ADP-Glo kinase inhibitory assay, HER-2; assay type: biochemical; conditions: read-out: % Inhibition at 10 nM, HER-2
T2 construct: purchased Promega
Description: as §3, §4, §5

HER-4 = target: T3, HER-4 (Homo sapiens, UniProt Q15303); assay: ADP-Glo kinase inhibitory assay, HER-4; assay type: biochemical; conditions: for inhibition at 0.01 µM: read-out: % Inhibition at 10 nM, HER-4; for inhibitory activity in relation to HER-4, in words: 10 nM, compared with imatinib
T3 construct: purchased Promega
T3 sequence (Q15303 26-1308): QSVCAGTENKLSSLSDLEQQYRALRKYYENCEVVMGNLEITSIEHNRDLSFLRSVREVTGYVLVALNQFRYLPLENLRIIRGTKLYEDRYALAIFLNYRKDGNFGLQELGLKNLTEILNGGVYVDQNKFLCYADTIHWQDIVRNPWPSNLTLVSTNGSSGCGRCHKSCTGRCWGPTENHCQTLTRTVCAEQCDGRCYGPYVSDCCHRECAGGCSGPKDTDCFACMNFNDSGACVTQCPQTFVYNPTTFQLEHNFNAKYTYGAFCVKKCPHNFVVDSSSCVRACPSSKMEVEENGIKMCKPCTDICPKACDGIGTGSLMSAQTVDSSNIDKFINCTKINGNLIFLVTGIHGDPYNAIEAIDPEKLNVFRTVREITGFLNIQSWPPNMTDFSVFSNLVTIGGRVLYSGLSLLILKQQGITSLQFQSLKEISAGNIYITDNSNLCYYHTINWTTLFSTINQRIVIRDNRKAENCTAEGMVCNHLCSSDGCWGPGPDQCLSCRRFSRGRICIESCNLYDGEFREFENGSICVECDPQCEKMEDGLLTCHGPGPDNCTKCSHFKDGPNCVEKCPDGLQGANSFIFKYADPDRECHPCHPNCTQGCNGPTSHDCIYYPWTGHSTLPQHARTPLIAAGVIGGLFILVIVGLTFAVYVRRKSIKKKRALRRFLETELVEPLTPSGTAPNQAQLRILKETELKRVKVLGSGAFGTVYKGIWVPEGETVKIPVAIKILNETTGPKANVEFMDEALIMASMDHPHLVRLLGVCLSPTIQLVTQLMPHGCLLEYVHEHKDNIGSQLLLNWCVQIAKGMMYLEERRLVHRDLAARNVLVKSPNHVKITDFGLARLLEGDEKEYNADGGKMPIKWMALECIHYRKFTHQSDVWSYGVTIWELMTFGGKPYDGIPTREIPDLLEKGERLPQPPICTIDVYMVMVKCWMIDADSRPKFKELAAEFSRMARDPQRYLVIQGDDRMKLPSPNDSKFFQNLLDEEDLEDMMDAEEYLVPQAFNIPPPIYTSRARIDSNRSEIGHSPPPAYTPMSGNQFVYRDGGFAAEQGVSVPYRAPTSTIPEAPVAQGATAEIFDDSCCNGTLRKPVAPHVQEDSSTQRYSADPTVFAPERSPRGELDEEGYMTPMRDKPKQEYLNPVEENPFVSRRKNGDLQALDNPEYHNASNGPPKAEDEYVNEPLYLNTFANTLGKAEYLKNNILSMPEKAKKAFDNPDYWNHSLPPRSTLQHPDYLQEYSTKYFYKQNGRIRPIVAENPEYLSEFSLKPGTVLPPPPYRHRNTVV
Description: as §3, §4, §5

IGF1R = target: T4, IGF1R (Homo sapiens, UniProt P08069); assay: ADP-Glo kinase inhibitory assay, IGF1R; assay type: biochemical; conditions: read-out: % Inhibition at 10 nM, IGF1R
T4 construct: purchased Promega
Description: as §3, §4, §5

InsR = target: T5, InsR (Homo sapiens, UniProt P06213); assay: ADP-Glo kinase inhibitory assay, InsR; assay type: biochemical; conditions: for selectivity for the gene insulin receptor, in words: 10 nM, panel of eight receptor tyrosine kinases; for inhibition at 0.01 µM: read-out: % Inhibition at 10 nM, InsR
T5 construct: purchased Promega
Description: as §3, §4, §5

KDR (VEGFR2) = target: T6, KDR (VEGFR2) (Homo sapiens, UniProt P35968); assay: ADP-Glo kinase inhibitory assay, KDR; assay type: biochemical; conditions: 10 nM
T6 construct: purchased Promega
T6 sequence (P35968 20-1356): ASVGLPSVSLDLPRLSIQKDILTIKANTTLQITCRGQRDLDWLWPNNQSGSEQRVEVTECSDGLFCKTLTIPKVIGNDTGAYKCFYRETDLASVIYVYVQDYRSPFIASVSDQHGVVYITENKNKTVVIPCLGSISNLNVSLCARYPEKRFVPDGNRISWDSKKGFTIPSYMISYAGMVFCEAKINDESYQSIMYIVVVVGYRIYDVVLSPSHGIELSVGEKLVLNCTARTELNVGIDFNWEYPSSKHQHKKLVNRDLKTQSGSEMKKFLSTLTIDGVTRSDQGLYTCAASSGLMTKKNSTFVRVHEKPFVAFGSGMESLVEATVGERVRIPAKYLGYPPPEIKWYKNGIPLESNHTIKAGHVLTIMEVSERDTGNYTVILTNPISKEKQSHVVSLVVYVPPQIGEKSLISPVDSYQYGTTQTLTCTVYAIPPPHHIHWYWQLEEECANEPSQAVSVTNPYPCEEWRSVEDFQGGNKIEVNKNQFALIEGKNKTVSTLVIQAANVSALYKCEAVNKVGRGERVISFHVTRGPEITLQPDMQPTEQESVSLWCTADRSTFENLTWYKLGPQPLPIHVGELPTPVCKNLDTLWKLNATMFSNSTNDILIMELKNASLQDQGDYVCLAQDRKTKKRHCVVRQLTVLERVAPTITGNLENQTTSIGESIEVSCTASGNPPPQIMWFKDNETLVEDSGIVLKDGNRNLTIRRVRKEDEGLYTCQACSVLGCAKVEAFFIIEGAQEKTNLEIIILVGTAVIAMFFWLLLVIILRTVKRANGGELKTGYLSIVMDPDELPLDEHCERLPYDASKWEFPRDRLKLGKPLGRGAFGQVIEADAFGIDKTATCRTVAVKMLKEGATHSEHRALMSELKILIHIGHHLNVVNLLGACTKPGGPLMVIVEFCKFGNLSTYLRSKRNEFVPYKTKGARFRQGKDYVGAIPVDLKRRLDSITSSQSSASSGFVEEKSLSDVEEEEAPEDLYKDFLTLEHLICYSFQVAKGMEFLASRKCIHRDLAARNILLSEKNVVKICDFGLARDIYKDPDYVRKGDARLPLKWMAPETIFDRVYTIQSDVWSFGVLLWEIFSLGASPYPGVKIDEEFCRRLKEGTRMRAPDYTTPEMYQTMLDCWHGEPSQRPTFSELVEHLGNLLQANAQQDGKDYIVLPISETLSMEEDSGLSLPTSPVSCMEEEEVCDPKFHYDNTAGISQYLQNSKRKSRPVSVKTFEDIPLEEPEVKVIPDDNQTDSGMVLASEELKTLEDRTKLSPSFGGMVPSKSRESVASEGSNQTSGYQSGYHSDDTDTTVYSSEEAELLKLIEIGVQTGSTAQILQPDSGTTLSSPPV
Description: as §3
Vascular endothelial growth factor receptor 2 (VEGFR2), also called kinase insert domain receptor (KDR), is a tyrosine kinase receptor for VEGFs that plays a central role in tumor angiogenesis; therefore, the inhibition of VEGFR2 is a promising therapeutic strategy for inhibiting angiogenesis and tumor growth.
as §4, §5

PDGFRa = target: T7, PDGFRa (Homo sapiens, UniProt P16234); assay: ADP-Glo kinase inhibitory assay, PDGFRa; assay type: biochemical; conditions: read-out: % Inhibition at 10 nM, PDGFRa
T7 construct: purchased Promega
T7 sequence (P16234 24-1089): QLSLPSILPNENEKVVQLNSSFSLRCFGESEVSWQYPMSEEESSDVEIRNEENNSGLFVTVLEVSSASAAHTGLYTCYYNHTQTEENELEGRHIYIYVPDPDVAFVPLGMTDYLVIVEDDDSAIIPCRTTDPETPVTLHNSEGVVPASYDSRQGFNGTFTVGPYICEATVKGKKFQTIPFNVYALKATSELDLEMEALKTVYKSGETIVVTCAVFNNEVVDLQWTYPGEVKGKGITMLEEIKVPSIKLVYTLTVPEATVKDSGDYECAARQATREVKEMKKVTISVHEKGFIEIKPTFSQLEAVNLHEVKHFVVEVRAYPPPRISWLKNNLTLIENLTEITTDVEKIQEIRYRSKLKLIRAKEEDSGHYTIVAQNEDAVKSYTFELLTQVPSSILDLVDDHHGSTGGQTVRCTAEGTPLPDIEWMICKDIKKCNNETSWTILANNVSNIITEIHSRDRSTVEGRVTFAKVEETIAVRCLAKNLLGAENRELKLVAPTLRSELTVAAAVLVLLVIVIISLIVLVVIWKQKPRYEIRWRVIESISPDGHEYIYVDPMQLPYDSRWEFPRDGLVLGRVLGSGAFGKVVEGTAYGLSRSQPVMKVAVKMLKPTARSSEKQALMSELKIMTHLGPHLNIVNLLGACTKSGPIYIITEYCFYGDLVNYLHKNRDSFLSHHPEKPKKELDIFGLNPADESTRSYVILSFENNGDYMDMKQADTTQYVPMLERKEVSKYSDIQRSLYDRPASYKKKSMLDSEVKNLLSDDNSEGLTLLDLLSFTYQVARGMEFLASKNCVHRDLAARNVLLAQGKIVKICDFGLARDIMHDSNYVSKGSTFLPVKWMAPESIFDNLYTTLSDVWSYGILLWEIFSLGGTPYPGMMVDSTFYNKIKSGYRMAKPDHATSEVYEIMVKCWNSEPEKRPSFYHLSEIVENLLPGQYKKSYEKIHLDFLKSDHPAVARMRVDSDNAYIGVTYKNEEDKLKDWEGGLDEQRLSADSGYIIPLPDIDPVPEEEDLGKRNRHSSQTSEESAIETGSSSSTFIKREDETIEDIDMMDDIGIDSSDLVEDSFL
Description: as §3, §4, §5

PDGFRb = target: T8, PDGFRb (Homo sapiens, UniProt P09619); assay: ADP-Glo kinase inhibitory assay, PDGFRb; assay type: biochemical; conditions: read-out: % Inhibition at 10 nM, PDGFRb
T8 construct: purchased Promega
Description: as §3, §4, §5

Row | SMILES | IC50 [1] [µM] | IC50 [2] [µM] | IC50 [3] [µM] | IC50 (HeLa (cervix carcinoma)) [µM] | IC50 (A549 (lung carcinoma)) [µM] | IC50 [4] [µM] | inhibition at 0.01 µM (EGFR) [%] | inhibition at 0.01 µM (HER-2) [%] | inhibition at 0.01 µM (HER-4) [%] | inhibition at 0.01 µM (IGF1R) [%] | selectivity for the gene insulin receptor, in words (InsR) | inhibition at 0.01 µM (InsR) [%] | inhibition at 0.01 µM (KDR (VEGFR2)) [%] | inhibition at 0.01 µM (PDGFRa) [%] | inhibition at 0.01 µM (PDGFRb) [%] | melting point [°C] | inhibitory activity in relation to HER-4, in words (HER-4) | inhibition at 100 µM [5] [%]
1 | Cc1cn(-c2cc(NC(=O)c3ccc(CCl)cc3)cc(C(F)(F)F)c2)cn1 [Compound 5, 4-(Chloromethyl)-N-(3-(4-methyl-1H-imidazol-1-yl)-5-(trifluoromethyl)phenyl)benzamide] | 69 | 45 | 54 | 51.8 | 53.5 | 70 | 0 | 0 | 0 | 0 | high selectivity | 57 | 0 | 0 | 0 | – | – | < 0.1
2 | Cc1cn(-c2cc(NCc3ccc(C(=O)Nc4cc(-n5cnc(C)c5)cc(C(F)(F)F)c4)cc3)cc(C(F)(F)F)c2)cn1 [Compound 8, N-(3-(4-methyl-1H-imidazol-1-yl)-5-(trifluoromethyl)phenyl)-4-(((3-(4-methyl-1H-imidazol-1-yl)-5-(trifluoromethyl)phenyl)amino)methyl)benzamide] | – | – | 9.5 | 87 | 85 | > 100 | – | – | – | – | – | – | – | – | – | 200 to 202 | – | 19.3
3 | Cc1cn(-c2cc(NC(=O)c3ccc(CNc4cc([N+](=O)[O-])ccc4C)cc3)cc(C(F)(F)F)c2)cn1 [Compound 9, N-(3-(4-methyl-1H-imidazol-1-yl)-5-(trifluoromethyl)phenyl)-4-(((2-methyl-5-nitrophenyl)amino)methyl)benzamide] | 51 | 57 | > 100 | – | > 100 | > 100 | – | – | – | – | – | – | – | – | – | 113 to 115 | – | –
4 | CCOC(=O)CC[C@H](NC(=O)c1ccc(CNc2nccc(-c3cccnc3)n2)cc1)C(=O)OCC [Compound 23, Diethyl (4-(((4-(pyridin-3-yl)pyrimidin-2-yl)amino)methyl)benzoyl)glutamate] | 66 | 49 | – | – | – | – | 0 | 0 | 12 | 1 | – | 49 | 0 | 0 | 0 | 130 to 132 | – | 11.5
5 | Cc1cn(-c2cc(NC(=O)c3ccc(C)c(Nc4nccc(-c5cccnc5)n4)c3)cc(C(F)(F)F)c2)cn1 [Nilotinib, reference compound] | < 0.1 | 55 | – | – | – | 55 | – | – | – | – | – | – | – | – | – | – | – | < 0.1
6 | CNC(=O)c1cc(Oc2ccc(NC(=O)Nc3ccc(Cl)c(C(F)(F)F)c3)cc2)ccn1 [Sorafenib, reference compound] | – | – | 55 | – | 58 | 51 | – | – | – | – | – | – | – | – | – | – | – | –

Continued, in another order:

Row | IC50 [1] [µM] | IC50 [2] [µM] | IC50 [3] [µM] | IC50 (HeLa (cervix carcinoma)) [µM] | IC50 (A549 (lung carcinoma)) [µM] | IC50 [4] [µM] | inhibition at 0.01 µM (EGFR) [%] | inhibition at 0.01 µM (HER-2) [%] | inhibition at 0.01 µM (HER-4) [%] | inhibition at 0.01 µM (IGF1R) [%] | selectivity for the gene insulin receptor, in words (InsR) | inhibition at 0.01 µM (InsR) [%] | inhibition at 0.01 µM (KDR (VEGFR2)) [%] | inhibition at 0.01 µM (PDGFRa) [%] | inhibition at 0.01 µM (PDGFRb) [%] | melting point [°C] | inhibitory activity in relation to HER-4, in words (HER-4) | SMILES | inhibition at 100 µM [5] [%]
7 | 6.9 | 30.6 | 71 | – | > 100 | – | 0 | 0 | 0 | 0 | high selectivity | 50 | 0 | 8 | 2 | 106 to 109 | – | Cc1cn(-c2cc(NC(=O)c3ccc(CN4CCN(C(=O)c5ccccc5F)CC4)cc3)cc(C(F)(F)F)c2)cn1 [Compound 28j, 4-{[4-(2-Fluorobenzoyl)piperazin-1-yl]methyl}-N-[3-(4-methyl-1H-imidazol-1-yl)-5-(trifluoromethyl)phenyl]benzamide] | 6.44
8 | 3.6 | 38.5 | – | – | – | – | 0 | 0 | 43 | 0 | – | 33 | 23 | 0 | 2 | 90 to 93 | comparable to imatinib | Cc1cn(-c2cc(NC(=O)c3ccc(CN4CCN(C(=O)c5cccc(F)c5)CC4)cc3)cc(C(F)(F)F)c2)cn1 [Compound 28k, 4-{[4-(3-Fluorobenzoyl)piperazin-1-yl]methyl}-N-[3-(4-methyl-1H-imidazol-1-yl)-5-(trifluoromethyl)phenyl]benzamide] | 3.14
9 | 4.5 | 53.5 | 77 | > 100 | > 100 | > 100 | 0 | 0 | 51 | 0 | – | 0 | 17 | 0 | 7 | 96 to 100 | comparable to imatinib | Cc1cn(-c2cc(NC(=O)c3ccc(CN4CCN(C(=O)c5cccnc5)CC4)cc3)cc(C(F)(F)F)c2)cn1 [Compound 28l] | –
